What was measured:
IRAK4 = target: T1, IRAK4 (Homo sapiens, UniProt Q9NWZ3); assay: RBC HotSpot Kinase Assay, IRAK4; type: biochemical; parameters: purchased Reaction Biology (RBC), HotSpot kinase assay; details: isolated kinase, 33P-ATP
T1 sequence (Q9NWZ3 1-460): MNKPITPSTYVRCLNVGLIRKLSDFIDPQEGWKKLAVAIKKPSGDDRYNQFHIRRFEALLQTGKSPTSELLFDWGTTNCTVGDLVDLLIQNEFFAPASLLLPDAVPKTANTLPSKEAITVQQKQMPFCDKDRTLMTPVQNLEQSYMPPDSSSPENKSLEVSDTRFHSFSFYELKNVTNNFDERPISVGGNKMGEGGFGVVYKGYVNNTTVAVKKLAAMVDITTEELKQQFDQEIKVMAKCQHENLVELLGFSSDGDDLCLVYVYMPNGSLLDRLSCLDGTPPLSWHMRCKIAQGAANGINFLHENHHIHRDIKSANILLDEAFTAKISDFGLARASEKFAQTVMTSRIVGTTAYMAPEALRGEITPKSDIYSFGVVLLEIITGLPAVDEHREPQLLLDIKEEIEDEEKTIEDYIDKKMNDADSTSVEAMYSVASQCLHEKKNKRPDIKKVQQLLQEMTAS
From the text: (§1) This assay uses the isolated kinase enzyme. This assay is very useful for determining competition of the inhibitor for ATP and/or substrates and for measuring the kinetics of enzyme inhibition. […] Unlike kinase binding assays that measure competition for ATP, the HotSpot Kinase Assay is a functional assay that measures catalytic activity; as such it measures relative functional potency regardless of the mechanism of enzyme inhibition. This assay uses the form of the various enzymes that are easiest to express, which may not necessarily be the form of the enzyme that exist in the cell. (Sometimes the carboxy terminus has been truncated to aid in expression, or, if it is a receptor kinase, the enzyme itself is isolated from the other parts of the receptor that are involved in regulating kinase activity.)
(§2) The reagent used was as follows: Base Reaction buffer; 20 mM Hepes (pH 7.5), 10 mM MgCl2, 1 mM EGTA, 0.01% Brij35, 0.02 mg/ml BSA, 0.1 mM Na3VO4, 2 mM DTT, 1% DMSO. Required cofactors were added individually to each kinase reaction.
(§3) The reaction procedure was as follows: • 1) Substrates were prepared in freshly prepared Reaction Buffer. • 2) Any required cofactors were delivered to the substrate solution above. • 3) Kinase was delivered into the substrate solution and gently mixed. • 4) Compounds were delivered in 100% DMSO into the kinase reaction mixture by Acoustic technology (Echo550; nanoliter range), followed by incubation for 20 min at room temp. • 5)^33P-ATP was delivered into the reaction mixture to initiate the reaction. • 6) The mixture was incubated for 2 hours at room temperature. • 7) Kinase activity was detected by P81 filter-binding method.

FLT3 = target: T2, FLT3 (Homo sapiens, UniProt P36888); assay: RBC HotSpot Kinase Assay, FLT3; type: biochemical; parameters: purchased Reaction Biology (RBC), HotSpot kinase assay; details: isolated kinase, 33P-ATP
T2 sequence (P36888 27-993): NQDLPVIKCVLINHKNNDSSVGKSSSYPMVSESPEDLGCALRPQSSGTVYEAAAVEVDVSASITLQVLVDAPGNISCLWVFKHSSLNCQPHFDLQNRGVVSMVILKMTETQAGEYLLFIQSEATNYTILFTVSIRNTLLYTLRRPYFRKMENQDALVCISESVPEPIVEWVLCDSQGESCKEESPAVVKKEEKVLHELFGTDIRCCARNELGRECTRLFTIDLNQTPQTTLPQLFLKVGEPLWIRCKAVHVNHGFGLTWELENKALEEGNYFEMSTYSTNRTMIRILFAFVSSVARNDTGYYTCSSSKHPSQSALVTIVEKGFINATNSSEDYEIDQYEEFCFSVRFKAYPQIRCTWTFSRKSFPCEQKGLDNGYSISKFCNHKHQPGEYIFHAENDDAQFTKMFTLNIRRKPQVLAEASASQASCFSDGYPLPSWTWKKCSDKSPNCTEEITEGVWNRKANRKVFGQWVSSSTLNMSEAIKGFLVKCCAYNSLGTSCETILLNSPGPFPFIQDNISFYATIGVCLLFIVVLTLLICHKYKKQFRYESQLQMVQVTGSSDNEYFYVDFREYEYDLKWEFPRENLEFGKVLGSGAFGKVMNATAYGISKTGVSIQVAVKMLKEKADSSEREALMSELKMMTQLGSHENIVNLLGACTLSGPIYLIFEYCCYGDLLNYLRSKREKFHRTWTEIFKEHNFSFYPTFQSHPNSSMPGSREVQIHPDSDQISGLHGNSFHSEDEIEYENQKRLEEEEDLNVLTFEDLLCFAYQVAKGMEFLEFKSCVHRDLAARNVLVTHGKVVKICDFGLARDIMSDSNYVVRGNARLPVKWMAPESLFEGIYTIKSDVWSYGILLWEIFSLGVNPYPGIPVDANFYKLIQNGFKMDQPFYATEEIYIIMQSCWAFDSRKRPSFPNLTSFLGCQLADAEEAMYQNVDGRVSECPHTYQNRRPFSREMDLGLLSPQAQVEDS
From the text: as §1, §2, §3

MOLM14 D835Y cells = assay: MOLM14 D835Y cell viability assay (Cell Titer Glo); type: cell-based; details: Homo sapiens, MOLM-14, 48 h
Description: Both cell lines have activated FLT3 receptors, each of which carry additional resistance mutations in the kinase domain (D835Y and F691L, respectively).
MOLM14 D835Y and MOLM14 F691L cells were grown in RPMI-1640 media supplemented with 20% fetal bovine serum (FBS). For viability/cytotoxicity assessments, cells were seeded into 1536-well white polystyrene tissue culture-treated Greiner plates using a Multidrop Combi dispenser (ThermoFisher), in final volume 5 μL of growth media per well, at a density of 1000 cells per well. After cell addition, 23 nL of test compound were transferred into individual wells (22 doses tested for each test compound, with a 1:2 dilution series starting at 10 μM) via a 1536 pin-tool. Bortezomib (final concentration 2.3 μM) was used as a positive control for cell cytotoxicity. Plates were incubated for 48 hours at standard incubator conditions covered by a stainless steel gasketed lid to prevent evaporation. 48 hours post compound addition, 3 μL of Cell Titer Glo (Promega) were added to each well and plates were incubated at room temperature for 15 minutes with the stainless-steel lid in place. Luminescence readings were taken using a Viewlux imager (PerkinElmer) with a 2 second exposure time per plate.

IRAK1 = target: T3, IRAK1 (Homo sapiens, UniProt P51617); assay: RBC HotSpot Kinase Assay, IRAK1; type: biochemical; details: isolated kinase, 33P-ATP
T3 construct: purchased Reaction Biology (RBC), HotSpot kinase assay
T3 sequence (P51617 whole entry): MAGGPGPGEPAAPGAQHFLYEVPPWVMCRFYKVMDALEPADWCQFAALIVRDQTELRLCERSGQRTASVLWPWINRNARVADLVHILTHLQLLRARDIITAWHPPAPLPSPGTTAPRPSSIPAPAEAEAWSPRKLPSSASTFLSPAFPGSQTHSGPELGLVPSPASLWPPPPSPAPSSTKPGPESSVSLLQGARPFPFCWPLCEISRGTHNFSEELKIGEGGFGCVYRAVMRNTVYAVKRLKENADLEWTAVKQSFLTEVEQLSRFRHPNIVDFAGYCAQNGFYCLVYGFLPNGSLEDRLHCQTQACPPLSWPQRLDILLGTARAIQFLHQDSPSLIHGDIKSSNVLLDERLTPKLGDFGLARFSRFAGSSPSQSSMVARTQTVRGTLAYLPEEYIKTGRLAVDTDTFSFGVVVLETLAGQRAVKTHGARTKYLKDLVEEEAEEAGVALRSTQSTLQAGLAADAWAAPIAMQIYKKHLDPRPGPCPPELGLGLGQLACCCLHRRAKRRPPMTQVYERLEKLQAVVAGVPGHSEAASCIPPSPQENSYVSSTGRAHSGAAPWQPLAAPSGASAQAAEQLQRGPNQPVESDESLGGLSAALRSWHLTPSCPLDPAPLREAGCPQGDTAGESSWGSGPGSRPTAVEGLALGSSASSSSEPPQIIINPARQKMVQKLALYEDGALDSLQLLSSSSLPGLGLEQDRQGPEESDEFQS
From the text: as §1, §2, §3

C[C@H]1CNC[C@@H]1Nc1cccc(-c2cnc3cnc(C4(C(F)(F)F)CC4)cn23)n1 [Compound 11, N-((3R,4S)-4-methylpyrrolidin-3-yl)-6-(6-(1-(trifluoromethyl)cyclopropyl)imidazo[1,2-a]pyrazin-3-yl)pyridin-2-amine]
IC50 (IRAK4): 3 nM | IC50 (FLT3): < 0.5 nM | IC50 (MOLM14 D835Y cells): 15 nM | IC50 (IRAK1): 301 nM

FC(F)c1cn2c(-c3cccc(N[C@@H]4CCNC4)n3)cnc2cn1 [Compound 18, (R)-6-(6-(difluoromethyl)imidazo[1,2-a]pyrazin-3-yl)-N-(pyrrolidin-3-yl)pyridin-2-amine]
IC50 (IRAK4): 1 nM | IC50 (FLT3): < 0.5 nM | IC50 (MOLM14 D835Y cells): 14 nM | IC50 (IRAK1): 82 nM

C[C@H]1CNC[C@@H]1Nc1cccc(-c2cnc3cnc(C(C)(C)O)cn23)n1 [Compound 29, 2-(3-(6-(((3R,4S)-4-methylpyrrolidin-3-yl)amino)pyridin-2-yl)imidazo[1,2-a]pyrazin-6-yl)propan-2-ol]
IC50 (IRAK4): 1 nM | IC50 (FLT3): 0.6 nM | IC50 (MOLM14 D835Y cells): 42 nM | IC50 (IRAK1): 273 nM

CC(C)(O)Cn1cc(-c2cn3c(-c4cccc(N[C@H]5CNC[C@@H]5F)n4)cnc3cn2)cn1 [Compound 54, 1-(4-(3-(6-(((3S,4S)-4-fluoropyrrolidin-3-yl)amino)pyridin-2-yl)imidazo[1,2-a]pyrazin-6-yl)-1H-pyrazol-1-yl)-2-methylpropan-2-ol]
IC50 (IRAK4): 5 nM | IC50 (FLT3): < 0.5 nM | IC50 (IRAK1): 2290 nM

F[C@H]1CNC[C@@H]1Nc1cccc(-c2cnc3cnc(-c4cnn5ccccc45)cn23)n1 [Compound 55, N-((3S,4S)-4-fluoropyrrolidin-3-yl)-6-(6-(pyrazolo[1,5-a]pyridin-3-yl)imidazo[1,2-a]pyrazin-3-yl)pyridin-2-amine]
IC50 (IRAK4): < 0.5 nM | IC50 (FLT3): < 0.5 nM | IC50 (IRAK1): 304 nM

COc1cn2c(-c3cccc(N[C@H]4CNC[C@@H]4F)n3)cnc2cn1 [Compound 56, N-((3S,4S)-4-fluoropyrrolidin-3-yl)-6-(6-methoxyimidazo[1,2-a]pyrazin-3-yl)pyridin-2-amine]
IC50 (IRAK4): 4 nM | IC50 (FLT3): 0.7 nM | IC50 (IRAK1): 840 nM

CC1(C)CCN(c2cn3c(-c4cccc(N[C@H]5CNC[C@@H]5F)n4)cnc3cn2)C1=O [Compound 61, 1-(3-(6-(((3S,4S)-4-fluoropyrrolidin-3-yl)amino)pyridin-2-yl)imidazo[1,2-a]pyrazin-6-yl)-3,3-dimethylpyrrolidin-2-one]
IC50 (IRAK4): 46 nM | IC50 (FLT3): 2 nM | IC50 (IRAK1): 3540 nM

CC1(C)CC(=O)N(c2cn3c(-c4cccc(N[C@H]5CNC[C@@H]5F)n4)cnc3cn2)C1 [Compound 63, 1-(3-(6-(((3S,4S)-4-fluoropyrrolidin-3-yl)amino)pyridin-2-yl)imidazo[1,2-a]pyrazin-6-yl)-4,4-dimethylpyrrolidin-2-one]
IC50 (IRAK4): 238 nM | IC50 (FLT3): < 0.5 nM | IC50 (IRAK1): 3430 nM

OC1(C(F)(F)F)CCN(c2cn3c(-c4cccc(N[C@H]5CNC[C@@H]5F)n4)cnc3cn2)C1 (stereo partly drawn) [Compound 66, 1-(3-(6-(((3S,4S)-4-fluoropyrrolidin-3-yl)amino)pyridin-2-yl)imidazo[1,2-a]pyrazin-6-yl)-3-(trifluoromethyl)pyrrolidin-3-ol]
IC50 (IRAK4): 4 nM | IC50 (FLT3): 1 nM | IC50 (IRAK1): 6020 nM

F[C@H]1CNC[C@@H]1Nc1cccc(-c2cnc3cnc(N4CCC(F)(F)C4)cn23)n1 [Compound 67, 6-(6-(3,3-difluoropyrrolidin-1-yl)imidazo[1,2-a]pyrazin-3-yl)-N-((3S,4S)-4-fluoropyrrolidin-3-yl)pyridin-2-amine]
IC50 (IRAK4): 4 nM | IC50 (FLT3): 0.7 nM | IC50 (IRAK1): 8190 nM

c1cc(N[C@@H]2CCCNC2)nc(-c2cnc3cnccn23)c1 [Compound 69, (R)-6-(imidazo[1,2-a]pyrazin-3-yl)-N-(piperidin-3-yl)pyridin-2-amine]
IC50 (IRAK4): 15 nM | IC50 (FLT3): < 0.5 nM | IC50 (IRAK1): 2030 nM

F[C@H]1CCNC[C@@H]1Nc1cccc(-c2cnc3cnccn23)n1 [Compound 70, N-((3S,4S)-4-fluoropiperidin-3-yl)-6-(imidazo[1,2-a]pyrazin-3-yl)pyridin-2-amine]
IC50 (IRAK4): 20 nM | IC50 (FLT3): < 0.5 nM | IC50 (IRAK1): 696 nM

c1cc(N[C@H]2CNCC23CC3)nc(-c2cnc3cnccn23)c1 [Compound 71, (R)-N-(6-(imidazo[1,2-a]pyrazin-3-yl)pyridin-2-yl)-5-azaspiro[2.4]heptan-7-amine]
IC50 (IRAK4): 2 nM | IC50 (FLT3): < 0.5 nM | IC50 (IRAK1): 966 nM

CC1(C)CNCC1Nc1cccc(-c2cnc3cnccn23)n1 (stereo not drawn) [Compound 72]
IC50 (IRAK4): 14 nM | IC50 (FLT3): < 0.5 nM | IC50 (IRAK1): 4190 nM

C[C@H]1CNC[C@@H]1Nc1cccc(-c2cnc3cnccn23)n1 [Compound 73, 6-(imidazo[1,2-a]pyrazin-3-yl)-N-((3R,4S)-4-methylpyrrolidin-3-yl)pyridin-2-amine]
IC50 (IRAK4): 2 nM | IC50 (FLT3): < 0.5 nM | IC50 (IRAK1): 622 nM

CC1(C)CCNCC1Nc1cccc(-c2cnc3cnccn23)n1 (stereo not drawn) [Compound 74, N-(4,4-dimethylpiperidin-3-yl)-6-(imidazo[1,2-a]pyrazin-3-yl)pyridin-2-amine]
IC50 (IRAK4): 14 nM | IC50 (FLT3): < 0.5 nM | IC50 (IRAK1): 4780 nM

CCOc1cn2c(-c3cccc(N[C@H]4CNC[C@@H]4F)n3)cnc2cn1 [compound 57, 6-(6-ethoxyimidazo[1,2-a]pyrazin-3-yl)-N-((3S,4S)-4-fluoropyrrolidin-3-yl)pyridin-2-amine]
IC50 (IRAK4): 2 nM | IC50 (FLT3): < 0.5 nM | IC50 (IRAK1): 165 nM

O=C1CC2(COC2)CN1c1cn2c(-c3cccc(N[C@H]4CNC[C@@H]4F)n3)cnc2cn1 [compound 62, 6-(3-(6-(((3S,4S)-4-fluoropyrrolidin-3-yl)amino)pyridin-2-yl)imidazo[1,2-a]pyrazin-6-yl)-2-oxa-6-azaspiro[3.4]octan-7-one]
IC50 (IRAK4): 86 nM | IC50 (FLT3): < 0.5 nM | IC50 (IRAK1): 7010 nM
